Target: T1, Tyrosine-protein phosphatase non-receptor type 5 (Homo sapiens, UniProt P54829)
T1 sequence (P54829 whole entry): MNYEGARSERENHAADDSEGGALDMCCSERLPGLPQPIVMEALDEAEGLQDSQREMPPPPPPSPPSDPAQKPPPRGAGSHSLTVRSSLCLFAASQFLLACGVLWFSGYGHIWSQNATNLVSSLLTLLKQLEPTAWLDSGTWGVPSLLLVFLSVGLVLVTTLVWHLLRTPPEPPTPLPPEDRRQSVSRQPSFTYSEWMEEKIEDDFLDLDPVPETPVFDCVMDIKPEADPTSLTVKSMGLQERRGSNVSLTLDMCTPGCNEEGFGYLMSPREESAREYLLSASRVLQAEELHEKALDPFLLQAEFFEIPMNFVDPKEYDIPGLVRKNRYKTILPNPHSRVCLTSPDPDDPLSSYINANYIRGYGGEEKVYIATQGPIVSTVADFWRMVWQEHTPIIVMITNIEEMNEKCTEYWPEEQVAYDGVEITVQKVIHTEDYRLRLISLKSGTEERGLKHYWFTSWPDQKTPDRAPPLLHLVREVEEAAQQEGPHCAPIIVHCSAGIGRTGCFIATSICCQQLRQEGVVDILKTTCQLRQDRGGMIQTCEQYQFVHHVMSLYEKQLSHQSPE
Test: PTPN5 inhibition measured colorimetrically – biochemical, colorimetric absorbance, orthogonal assay for STEP inhibitor project, dose response (AID 624207)

[1] = inactive by the depositor's call

SMILES	IC50 [1] [µM]	IC50 [µM]
COc1cccc(-c2cc(C(=O)Nc3nc4ccccc4s3)c3ccccc3n2)c1 [N-(1,3-benzothiazol-2-yl)-2-(3-methoxyphenyl)-4-quinolinecarboxamide]	78.3	–
COc1ccc(NC(=S)N2CCC(N(C)CC3CCCO3)CC2)cc1Cl (centres undefined) [N-(3-chloranyl-4-methoxy-phenyl)-4-[methyl(oxolan-2-ylmethyl)amino]piperidine-1-carbothioamide]	40.3	–
Cn1cc(CC(=O)Nc2cccc(C#N)c2)c2ccccc21 [N-(3-cyanophenyl)-2-(1-methyl-1H-indol-3-yl)acetamide]	–	> 80
CCCCC(=O)Nc1ccc(C(=O)NNC(=O)c2ccc(C)c(Br)c2)cc1 [N-(4-{[2-(3-bromo-4-methylbenzoyl)hydrazino]carbonyl}phenyl)pentanamide]	53.8	–
CCOc1ccc(CCNC(=O)CS(=O)(=O)Cc2nc(-c3ccc(OC)cc3)oc2C)cc1 [N-[2-(4-ethoxyphenyl)ethyl]-2-[[2-(4-methoxyphenyl)-5-methyl-1,3-oxazol-4-yl]methylsulfonyl]ethanamide]	–	> 80
COc1ccccc1NS(=O)(=O)c1cc(NC(=O)c2sccc2C)ccc1N1CCCC1 [N-[3-[(2-methoxyphenyl)sulfamoyl]-4-(1-pyrrolidinyl)phenyl]-3-methyl-2-thiophenecarboxamide]	–	6.95
CN1CCN(C(S)=Nc2ccc(S(N)(=O)=O)cc2)CC1 [N-[4-(aminosulfonyl)phenyl]-4-methyl-1-piperazinecarbothioamide]	41.5	–
CCCCN(CC)Cc1ccc(CN=C(S)Nc2c(C)cc(C)cc2C)o1 [N-[(5-{[butyl(ethyl)amino]methyl}-2-furyl)methyl]-N'-mesitylthiourea]	–	> 80
O=C(N/N=C/c1cccc(Br)c1)c1ccc(N2CCCC2=O)cc1 [N-[(E)-(3-bromophenyl)methylideneamino]-4-(2-oxidanylidenepyrrolidin-1-yl)benzamide]	22.9	–
O=C(N/N=C/c1ccc(Br)s1)c1cccc([N+](=O)[O-])c1 [N-[(E)-(5-bromanylthiophen-2-yl)methylideneamino]-3-nitro-benzamide]	–	14.9
O=C(COc1ccc(/C=N/NC(=O)c2ccccc2O)cc1)Nc1ccccc1 [N-[(E)-[4-(2-anilino-2-oxoethoxy)phenyl]methylideneamino]-2-hydroxybenzamide]	23.6	–
O=C(COc1ccc([CH+][N-]NC(=O)c2ccncc2)cc1)Nc1ccc([N+](=O)[O-])cc1 [N-[(E)-[4-[2-[(4-nitrophenyl)amino]-2-oxidanylidene-ethoxy]phenyl]methylideneamino]pyridine-4-carboxamide]	–	> 80
O=C(N/N=C/c1ccoc1)c1cc(O)cc(O)c1 [N-[(E)-furan-3-ylmethylideneamino]-3,5-dihydroxybenzamide]	–	> 80
Cc1cc(C(=O)NN=Cc2ccc(-c3ccc([N+](=O)[O-])cc3Cl)o2)[nH]n1 [N-[[5-(2-chloro-4-nitrophenyl)furan-2-yl]methylideneamino]-5-methyl-1H-pyrazole-3-carboxamide]	–	> 80
O=S(=O)(Nc1ccccc1)c1cccc2nsnc12 [N-phenyl-2,1,3-benzothiadiazole-4-sulfonamide]	–	> 80
COc1ccc(OC)c(-n2c(O)c3o[nH]c(-c4ccccc4Cl)c-3c2=O)c1 [SMR000046218]	–	> 80
CCN1CCN(C(=S)c2ccc(Cl)c(Cl)c2)CC1 [SMR000143195]	39.3	–
O=C(O)CCC(/N=N/c1ccc(S(=O)(=O)N2CCCC2)cc1[N+](=O)[O-])c1cccs1 (centres undefined) [SMR000151450]	32.8	–
O=Cc1cn(-c2ccccc2)nc1-c1cc2cc(O)ccc2oc1=O [SMR000152596]	–	> 80
CCN1CCN(C(=S)c2ccc(Br)cc2)CC1 [SMR000198085]	63.9	–
CCN(c1ccccc1)S(=O)(=O)c1cc(C(=O)OC(C)C(=O)Nc2ccc3c(c2)OCCO3)ccc1C (centres undefined) [SMR000242949]	–	> 80
COc1ccccc1Nc1ccc([N+](=O)[O-])cc1N [SMR000260154]	–	> 80

SMILES	IC50 [1] [µM]	IC50 [µM]
N=C(NCc1ccc2c(c1)OCO2)NC(=O)c1ccccc1 [SMR000293067]	77	–
O=C(NC1CCCCCC1)C(=S)NC1CCCCC1 [SMR000296231]	–	> 80
N=C1S/C(=C\c2ccc(O)cc2)C(=O)N1c1ccc(F)cc1 [SMR000298434]	–	> 80
CCOC(=O)N1CCC(N(CCN(C)C)C(=S)Nc2ccc(Oc3ccccc3)cc2)CC1 [SMR000311544]	27	–
O=C(COc1ccc([N+](=O)[O-])cc1)Nc1nnc(-c2cccnc2)s1 [SMR000385697]	–	> 80
Cc1ccc(NC(=O)CN2C(=O)S/C(=C\c3ccc(OCC(=O)O)c(Br)c3)C2=O)cc1 [SMR000477386]	–	> 80
COc1cc(/C=N/NC(=O)c2ccccc2O)ccc1OCC(=O)Nc1ccccc1 [SMR000515267]	44.7	–
COC(=O)c1ccccc1CSc1nsc(/C=C/N(C)C)c1C#N [SMR000549393]	33.5	–
Cc1ccc(NC(=O)CCn2c(=S)oc3ccccc32)cc1F [SMR000564947]	–	> 80
CCOC(=O)CC(NS(=O)(=O)c1ccc2ncc(C(=O)O)c(O)c2c1)c1ccc(OCC)c(OC)c1 (centres undefined) [SMR000621519]	–	> 80
Cc1ccc(NC(=O)c2ccc3nc(N4CCOCC4)sc3c2)c(Cl)c1 [SMR000624920]	22.4	–
Cc1c(C)c2ccc(OCC(=O)Nc3ccc(S(N)(=O)=O)cc3)c(C)c2oc1=O [SMR000652408]	36.1	–
Cc1sc2nc(CSC(C)C(=O)Nc3ccc(Cl)cn3)nc(O)c2c1C (centres undefined) [SMR001268769]	38.4	–
O=C(NN=Cc1ccccc1O)NN=Cc1ccccc1O [SMR001556943]	–	32.5
CC(=NNC(=S)N1CC2CCC(CC2)C1)c1cccc(C)n1 [SMR001565418]	–	> 80
CCN(c1ccccc1)S(=O)(=O)c1cc(C(=O)OCC(=O)c2c(N)n(C)c(=O)n(C)c2=O)ccc1C [[2-(4-amino-1,3-dimethyl-2,6-dioxopyrimidin-5-yl)-2-oxoethyl] 3-[ethyl(phenyl)sulfamoyl]-4-methylbenzoate]	–	> 80
COc1ccc(CN=Nc2nc(O)c(CC(=O)O)s2)cc1OCc1ccc(Cl)cc1Cl [[2-({3-[(2,4-dichlorobenzyl)oxy]-4-methoxybenzylidene}hydrazono)-4-oxo-1,3-thiazolidin-5-yl]acetic acid]	–	13.6
Cc1ccccc1N1CCN(C(=S)c2ccc(-c3cccc([N+](=O)[O-])c3)o2)CC1 [[4-(2-methylphenyl)-1-piperazinyl]-[5-(3-nitrophenyl)-2-furanyl]methanethione]	–	> 80
CCOC(=O)N1CCC(N(CCN(C)C)C(=S)Nc2cc(Cl)ccc2C)CC1 [ethyl 4-[(5-chloranyl-2-methyl-phenyl)carbamothioyl-[2-(dimethylamino)ethyl]amino]piperidine-1-carboxylate]	77.1	–
CCOC(=O)c1c(NC(=O)OC)sc(C(=O)N(CC)CC)c1C [ethyl 5-(diethylcarbamoyl)-2-(methoxycarbonylamino)-4-methylthiophene-3-carboxylate]	44.3	–
NS(=O)(=O)c1ccccc1 [sodium;phenylsulfonylazanide]	–	73
CC1=C(C(=O)OC(C)C)C(c2ccc(Cl)cc2)n2c(s/c(=C\c3ccc(OCC(=O)O)cc3)c2=O)=N1 (centres undefined) [{4-[(5-(4-chlorophenyl)-6-(isopropoxycarbonyl)-7-methyl-3-oxo-5H-[1,3]thiazolo[3,2-a]pyrimidin-2(3H)-ylidene)methyl]phenoxy}acetic acid]	–	5.83

— BindingDB's records for doi:10.7270/Q2KH0KWR (Burnham Center For Chemical Genomics, 2012)
